For one series, the target named is T1, thrombin (Bos taurus, UniProt P00735).
T1 construct: purchased Lubelska Wytwórnia Szczepionek (Lublin, Poland)
Briefly: Amidolytic activity of thrombin (chromogenic substrate H-D-Phe-Pip-Arg-pNA). It is filed as biochemical. On the procedure:
The determination of amidolytic activity was performed as previously described by Okada. A detailed description of the method is given below: 0.2 mL of the examined peptides (0.15 M NaCl as contro), a buffer, and 0.1 mL of enzyme solution were mixed. The final peptide concentrations were: 0.2 mM, 2 mM, and 20 mM. The mixture was incubated at 37 °C for 3 min; then the synthetic substrate solution was added in the same buffer. […] The mean values from three independent experiments done in duplicate are presented. A method error of 5% was adopted as statistical error. […] IC50 was calculated mathematically by extrapolation using a linear plot.

The target of the next series is T2, urokinase (Homo sapiens, UniProt P00749).
T2 construct: purchased Sigma (Schnelldorf, Germany)
Briefly: Amidolytic activity of urokinase (chromogenic substrate pyro-Glu-Gly-Arg-pNA). Type of series: biochemical. As to the method:
(§1) The determination of amidolytic activity was performed as previously described by Okada. A detailed description of the method is given below: 0.2 mL of the examined peptides (0.15 M NaCl as contro), a buffer, and 0.1 mL of enzyme solution were mixed. The final peptide concentrations were: 0.2 mM, 2 mM, and 20 mM. The mixture was incubated at 37 °C for 3 min; then the synthetic substrate solution was added in the same buffer. After 20 min of incubation, the reaction was stopped by adding 0.1 mL of 50% acetic acid and the absorbance of the released p-nitroaniline was measured at 405 nm. The mean values from three independent experiments done in duplicate are presented. A method error of 5% was adopted as statistical error. IC50 value was considered as the concentration of inhibitor that reduces absorbance by 50%, compared with absorbance measured under the same conditions without an inhibitor. IC50 was calculated mathematically by extrapolation using a linear plot. IC50 values are presented in Table 1 and Table 2, and graphically in Figure 1.
(§2) The buffers and the enzyme solutions included: • Tris buffer—0.6 mL (pH 8.8), enzyme: urokinase (50 units/mL), synthetic substrate: pyro-Glu-Gly-Arg-pNA·HCl (0.1 mL, 3 mM); • Tris buffer—0.5 mL (pH 8.4), enzyme: thrombin (1 units/mL), synthetic substrate: H-D-Phe-Pip-Arg-pNA (0.2 mL, 0.75 mM); • Tris buffer—0.5 mL (pH 7.4), enzyme: plasmin (0.4 units/mL), synthetic substrate: H-D-Val-Leu-Lys-pNA (0.2 mL, 3 mM); • Borate buffer—0.5 mL (pH 7.5), enzyme: trypsin (0.4 units/mL), synthetic substrate: Bzl-L-Arg-pNA·HCl (0.2 mL, 8 mM); • Tris buffer—0.6 mL (pH 9.0), enzyme: kallikrein (3 units/mL), synthetic substrate: H-D-Val-Leu-Arg-pNA·2HCl (0.1 mL, 75 mM); • Tris buffer—0.6 mL (pH 8.4), enzyme: t-PA ([…]), synthetic substrate: H-D-Ile-Pro-Arg-pNA (0.1 mL, 10 mM) • Tris buffer—0.6 mL (pH 9.0), enzyme: chymotrypsin (0.4 units/mL), synthetic substrate: Suc-Phe-pNA (0.2 mL, 8 mM)

The nature of series [1]: Viability of fibroblast cells, MTT assay. It is filed as cell-based, Human. Conditions: human, primary dermal fibroblast cells, 24 h, MTT, ± 2, read-out: Viability of fibroblast cells. On the procedure: Viability of fibroblast cells was examined with the use of the MTT assay. MTT, a yellow tetrazole, is reduced to purple formazan only in living cells. Absorbance of the coloured solution was measured by a spectrophotometer.
These studies were performed on primary dermal fibroblasts cells. The cells were maintained in DMEM supplemented with 10% fetal bovine serum (FBS), 2 mM glutamin, 50 U/mL penicillin and […] streptomycin at 37 °C in a 5% CO2 incubator. For experiments, cells cultures were plated at a density of 1 × 10^6/well in six-well culture plates (Costar, St. Louis, MO, USA) in 2 mL of growth medium. Cells reached about 80% of confluency at day 2 were used for the assays.
Toxicity of the tested substances was determined using an MTT [3-(4,5-dimethylthiazol-2-yl)-2,5-diphenyltetrazolium bromide)] assay. Palmitoyl and lipoyl peptides were dissolved in DMSO (dimethyl sulfoxide), the other peptides in DMEM, and added to the cell culture medium. Simultaneously, the same concentrations of DMSO without peptides were added to cells, serving as controls. The final peptide concentrations were: 1 μM, 10 μM, and 100 μM. After 24 h incubation, the cells cultured with the tested compounds were washed with phosphate-buffered saline (PBS) and then incubated for 4 h in 2 mL of MTT solution (5 mg/mL). After removing the medium, the cells were lysed in 200 μL of DMSO with 20 μL of Sorensen’s buffer (pH 10.5, 0.1 mol/L glycine with 0.1 mol/L NaCl). The absorbance of converted dye in living cells was measured at a wavelength of 570 nm. The mean values ± SD from three independent experiments done in duplicate are presented.

The next series concerns the target T3, plasmin (Homo sapiens, UniProt P00747).
T3 construct: purchased Chromogenix (Milano, Italy)
Briefly: Amidolytic activity of plasmin (chromogenic substrate H-D-Val-Leu-Lys-pNA). Type of series: biochemical. On the procedure: as §1, §2

Where [2] appears, read: amidolytic activity, Tris pH 8.4, 37 °C, IC50 by extrapolation using a linear plot, error 5%, read-out: IC50 Thrombin.
Setting [3] is: amidolytic activity, Tris pH 8.8, 37 °C, IC50 by extrapolation using a linear plot, error 5%, read-out: IC50 Urokinase.
The mark [4] stands for this setting: amidolytic activity, Tris pH 7.4, 37 °C, IC50 by extrapolation using a linear plot, error 5%, read-out: IC50 Plasmin.

Read-outs that look alike come from different tables or passages of the source. Residues, ends and D or L forms follow the SMILES beside them.

For orientation: viability means a read-out of living cells in per cent, often relative to untreated cells.

T3 sequence (P00747 581-810 limits assumed): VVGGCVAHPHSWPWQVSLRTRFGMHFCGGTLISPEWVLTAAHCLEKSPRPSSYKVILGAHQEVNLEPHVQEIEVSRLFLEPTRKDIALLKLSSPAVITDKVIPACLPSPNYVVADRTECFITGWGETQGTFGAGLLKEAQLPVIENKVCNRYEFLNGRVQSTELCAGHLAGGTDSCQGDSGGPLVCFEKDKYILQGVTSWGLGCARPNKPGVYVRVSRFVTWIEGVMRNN
T3 sequence (P00747 97-580 partner limits assumed): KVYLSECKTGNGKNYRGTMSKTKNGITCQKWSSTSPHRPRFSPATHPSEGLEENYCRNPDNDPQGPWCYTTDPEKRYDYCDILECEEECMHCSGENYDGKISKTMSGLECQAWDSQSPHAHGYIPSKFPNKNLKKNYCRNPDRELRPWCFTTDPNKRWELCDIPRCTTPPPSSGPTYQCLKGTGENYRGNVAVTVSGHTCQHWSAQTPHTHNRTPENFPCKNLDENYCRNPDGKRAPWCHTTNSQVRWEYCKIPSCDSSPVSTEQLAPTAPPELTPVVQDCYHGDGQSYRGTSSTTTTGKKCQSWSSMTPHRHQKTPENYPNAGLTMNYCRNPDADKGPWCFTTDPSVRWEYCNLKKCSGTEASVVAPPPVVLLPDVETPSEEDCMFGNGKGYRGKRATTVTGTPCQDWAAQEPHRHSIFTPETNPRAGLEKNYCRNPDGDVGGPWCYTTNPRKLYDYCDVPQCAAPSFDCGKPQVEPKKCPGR

With “H-RTTKS-OH [Peptide 25, H-Arg-Thr-Thr-Lys-Ser-OH]”, the IC50 on thrombin (setting [2]) is 2510 ± 130 µM. In addition, the IC50 on urokinase (setting [3]) was less than 200 µM. In series [1], the viability at 24 h, 1 µmol/L was found to be 97%; the viability at 24 h, 10 µmol/L amounted to 87%; the viability at 24 h, 100 µmol/L stood at 109%. Besides, the IC50 at plasmin (setting [4]) was 540 ± 27 µM.

`CCCCCCCCCCCCCCCC(=O)N[C@@H](CCCNC(=N)N)C(=O)N[C@H](C(=O)N[C@H](C(=O)N[C@@H](CCCNC(=N)N)C(=O)N[C@@H](CO)C(N)=O)[C@@H](C)O)[C@@H](C)O` [Peptide 24, Pal-Arg-Thr-Thr-Arg-Ser-NH2] (HELM PEPTIDE1{[CCCCCCCCCCCCCCCC(=O)[*:2]].R.T.T.R.S.[am]}$$$$V2.0): at urokinase (setting [3]), the IC50 was 260 ± 13 µM. Moreover, in series [1], the viability at 24 h, 1 µmol/L was determined as 94%; the viability at 24 h, 10 µmol/L worked out at 104%; the viability at 24 h, 100 µmol/L was 97%.

As for “H-RTTRS-NH2 [Peptide 21, H-Arg-Thr-Thr-Arg-Ser-NH2]”, the IC50 on thrombin (setting [2]) was 2930 ± 140 µM. Moreover, at urokinase (setting [3]), the IC50 is 12000 ± 590 µM. Besides, in series [1], the viability at 24 h, 1 µmol/L came to 84%; the viability at 24 h, 10 µmol/L was 94%; the viability at 24 h, 100 µmol/L is 103%. Further, the IC50 at plasmin (setting [4]) was 440 ± 22 µM.

Consider `CCCCCCCCCCCCCCCC(=O)N[C@@H](CCCNC(=N)N)C(=O)N[C@H](C(=O)N[C@H](C(=O)N[C@@H](CCCCN)C(=O)N[C@@H](CO)C(=O)O)[C@@H](C)O)[C@@H](C)O` [Peptide 28, Pal-Arg-Thr-Thr-Lys-Ser-OH] (HELM PEPTIDE1{[CCCCCCCCCCCCCCCC(=O)[*:2]].R.T.T.K.S}$$$$V2.0), for which the “level of inhibition of thrombin activity” value on thrombin is listed as “above 90%”. Also, the “level of inhibition of urokinase activity” value at urokinase is listed as “above 90%”. In addition, in series [1], the viability at 24 h, 1 µmol/L is 104%; the viability at 24 h, 10 µmol/L is 103%; the viability at 24 h, 100 µmol/L came to 106%. Besides, the “level of inhibition of plasmin activity” value at plasmin is recorded as “above 90%”.

As for `CCCCCCCCCCCCCCCC(=O)N[C@@H](CCCCN)C(=O)N[C@H](C(=O)N[C@H](C(=O)N[C@@H](CCCNC(=N)N)C(=O)N[C@@H](CO)C(N)=O)[C@@H](C)O)[C@@H](C)O` [Peptide 16, Pal-Lys-Thr-Thr-Arg-Ser-NH2] (HELM PEPTIDE1{[CCCCCCCCCCCCCCCC(=O)[*:2]].K.T.T.R.S.[am]}$$$$V2.0), the IC50 against urokinase came out at 2370 ± 120 µM. For the same compound, in series [1], the viability at 24 h, 1 µmol/L turned out to be 104%; the viability at 24 h, 10 µmol/L was determined as 114%; the viability at 24 h, 100 µmol/L amounted to 115%.

On to `CCCCCCCCCCCCCCCC(=O)N[C@@H](CCCNC(=N)N)C(=O)N[C@H](C(=O)N[C@H](C(=O)N[C@@H](CCCCN)C(=O)N[C@@H](CO)C(N)=O)[C@@H](C)O)[C@@H](C)O` [Peptide 32, Pal-Arg-Thr-Thr-Lys-Ser- NH2] (HELM PEPTIDE1{[CCCCCCCCCCCCCCCC(=O)[*:2]].R.T.T.K.S.[am]}$$$$V2.0), for which, in series [1], the viability at 24 h, 1 µmol/L was found to be 104%; the viability at 24 h, 10 µmol/L is 113%; the viability at 24 h, 100 µmol/L was determined as 118%.

Consider `C[C@@H](O)[C@H](NC(=O)[C@H](CCCNC(=N)N)NC(=O)CCCCC1CCSS1)C(=O)N[C@H](C(=O)N[C@@H](CCCNC(=N)N)C(=O)N[C@@H](CO)C(=O)O)[C@@H](C)O` (mixture of isomers) [Peptide 19, Lip-Arg-Thr-Thr-Arg-Ser-OH], for which the IC50 at thrombin (setting [2]) is 1840 ± 92 µM. In addition, in series [1], the viability at 24 h, 1 µmol/L was 79%; the viability at 24 h, 10 µmol/L is 81%; the viability at 24 h, 100 µmol/L turned out to be 90%. In addition, the IC50 on plasmin (setting [4]) is 1010 ± 51 µM.

For the compound `CCCCCCCCCCCCCCCC(=O)N[C@@H](CCCCN)C(=O)N[C@H](C(=O)N[C@H](C(=O)N[C@@H](CCCCN)C(=O)N[C@@H](CO)C(N)=O)[C@@H](C)O)[C@@H](C)O` [Peptide 8, Pal-Lys-Thr-Thr-Lys-Ser-NH2] (HELM PEPTIDE1{[CCCCCCCCCCCCCCCC(=O)[*:2]].K.T.T.K.S.[am]}$$$$V2.0), the IC50 at urokinase (setting [3]) was 3120 ± 160 µM. In addition, in series [1], the viability at 24 h, 1 µmol/L is 96%; the viability at 24 h, 10 µmol/L was 83%; the viability at 24 h, 100 µmol/L came to 83%. For the same compound, on plasmin (amidolytic activity, palmitic peptides, read-out: IC50 plasmin (text, micromolar)), the IC50 was less than 200 µM.

On to `C[C@@H](O)[C@H](NC(=O)[C@H](CCCCN)NC(=O)CCCCC1CCSS1)C(=O)N[C@H](C(=O)N[C@@H](CCCNC(=N)N)C(=O)N[C@@H](CO)C(=O)O)[C@@H](C)O` (mixture of isomers) [Peptide 11, Lip-Lys-Thr-Thr-Arg-Ser-OH], for which the IC50 on thrombin (setting [2]) was 10900 ± 540 µM. For the same compound, in series [1], the viability at 24 h, 1 µmol/L came to 102%; the viability at 24 h, 10 µmol/L is 105%; the viability at 24 h, 100 µmol/L amounted to 98%. For the same compound, the IC50 at plasmin (setting [4]) was 240 ± 12 µM.

Turning to “H-KTTRS-OH [Peptide 9, H-Lys-Thr-Thr-Arg-Ser-OH]”, the IC50 at thrombin (setting [2]) was 4010 ± 200 µM. Moreover, in series [1], the viability at 24 h, 1 µmol/L amounted to 93%; the viability at 24 h, 10 µmol/L amounted to 103%; the viability at 24 h, 100 µmol/L was 101%. For the same compound, the IC50 at plasmin (setting [4]) is 630 ± 31 µM.

On to “H-RTTRS-OH [Peptide 17, H-Arg-Thr-Thr-Arg-Ser-OH]”, for which, on thrombin (setting [2]), the IC50 is 3890 ± 190 µM. In series [1], the viability at 24 h, 1 µmol/L was 89%; the viability at 24 h, 10 µmol/L was 99%; the viability at 24 h, 100 µmol/L turned out to be 115%. Besides, the IC50 at plasmin (setting [4]) is 280 ± 14 µM. Besides, on plasmin (converted from IC50 of Table 1, read-out: -logIC50 Plasmin (converted)), the IC50 was 288 µM.

Take `C[C@@H](O)[C@H](NC(=O)[C@H](CCCNC(=N)N)NC(=O)CCCCC1CCSS1)C(=O)N[C@H](C(=O)N[C@@H](CCCCN)C(=O)N[C@@H](CO)C(=O)O)[C@@H](C)O` (mixture of isomers) [Peptide 27, Lip-Arg-Thr-Thr-Lys-Ser-OH]: the IC50 at thrombin (converted from IC50 of Table 1, read-out: -logIC50 Thrombin (converted)) was 4270 µM. Also, in series [1], the viability at 24 h, 1 µmol/L was found to be 105%; the viability at 24 h, 10 µmol/L stood at 91%; the viability at 24 h, 100 µmol/L came to 80%. Besides, the IC50 on plasmin (setting [4]) was 2120 ± 110 µM.

With `CCCCCCCCCCCCCCCC(=O)N[C@@H](CCCCN)C(=O)N[C@H](C(=O)N[C@H](C(=O)N[C@@H](CCCNC(=N)N)C(=O)N[C@@H](CO)C(=O)O)[C@@H](C)O)[C@@H](C)O` [Peptide 12, Pal-Lys-Thr-Thr-Arg-Ser-OH] (HELM PEPTIDE1{[CCCCCCCCCCCCCCCC(=O)[*:2]].K.T.T.R.S}$$$$V2.0), in series [1], the viability at 24 h, 1 µmol/L amounted to 103%; the viability at 24 h, 10 µmol/L turned out to be 98%; the viability at 24 h, 100 µmol/L amounted to 99%.

(Values after PMC6832239, “The Effects of a Novel Series of KTTKS Analogues on Cytotoxicity and Proteolytic Activity” (Molecules, 2019).)
